Measurements taken from patent EP1366743A1, “Use of a derivative of 7-oxydated DHEA for treating dry skin” (L'OREAL, priority 2002, dated 2003).

System: sébocytes humains immortalisés en culture, issus de la lignée SZ95
Experiment: Lipogenesis: total lipids produced by cultured immortalised human sebocytes (Nile Red fluorescence)
Format: cell-based
Details: for activation at 10 µM / activation at 1 µM: 48 h, total lipids, variation versus control, 2 days of treatment, confluent SZ95 sebocytes; for activation at 10 µM: 10^-5 M in 0,1% DMSO, read-out: % de variation à 10^-5 M; for activation at 1 µM: 10^-6 M in 0,1% DMSO, read-out: % de variation à 10^-6 M
Text: La 7α-OH DHEA et la 3-O-acétyl 7-benzoyloxy DHEA ont été testées sur un modèle de sébocytes humains immortalisés en culture, issus de la lignée SZ95 décrite dans Zouboulis, C.C., Seltmann, H., Neitzel, H. & Orfanos, C.E., Establishment and Characterization of an Immortalized Human Sebaceous Gland Cell Line, J. Invest. Dermatol., 113, 1011-1020 (1999).
Le test a consisté à mesurer la quantité de lipides produite par les sébocytes de la lignée (à confluence), en présence ou non d'agents actifs dilués dans le DMSO à 10^-5 M et 10^-6 M, de telle sorte que la quantité finale de DMSO dans le milieu de culture soit de 0,1%. Après 2 jours de traitement, les cellules adhérentes sont traitées par du Rouge de Nile (1µg/ml). Le contenu en lipides est ensuite quantifié par mesure de la fluorescence du colorant (deux couples d'excitation/émission : 485-540nm pour les lipides neutres et 540-620 nm pour les lipides non neutres). Les résultats sont donnés pour les lipides totaux (combinaison des deux mesures).
L'expérience est réalisée en sixplicate (produits dosés) ou dodeplicate (témoin) en plaque de 96 puits.
Le Tableau ci-dessous rassemble les résultats obtenus, en pourcentage de variation par rapport au témoin, ainsi que les coefficients p fournis par le test de Student et qui reflètent la significativité des mesures.

Structure (SMILES) | activation at 10 µM | activation at 1 µM | lipogénèse (result in words, 10^-6 M)
CC(=O)O[C@H]1CC[C@@]2(C)C(=CC(OC(=O)c3ccccc3)[C@@H]3[C@@H]2CC[C@]2(C)C(=O)CC[C@@H]32)C1 (some centres unmarked) [3-O-acétyl 7-benzoyloxy DHEA] | 15% | 15% | efficace
C[C@]12CC[C@H](O)CC1=C[C@@H](O)[C@@H]1[C@@H]2CC[C@]2(C)C(=O)CC[C@@H]12 [7α-OH DHEA] | 15% | 6% | –
